Measured values from patent US6303612A, “Derivatives of hydroxyphenylsulfanylbenzoic and hydroxphenylsulfanylarylacetic acids” (Leciva, A.S., priority 1998, dated 2001).
Converted amounts (≈) assume the structure as drawn. Read-outs that look alike come from different tables or passages of the source.

Tests used:
[1] = system: LTB4 production in rat polymorphonuclear cells; assay: Ex vivo inhibition of LTB4 production (LTB4 biosynthesis); type: cell-based; details: for IC50: Rattus norvegicus, read-out: Inh. of LTB4 biosynth., IC50; for Inh. of LTB4 biosynth., %: at 30 μg (%/μg)
Method: Ex vivo Inhibition of LTB4 Production The production of LTB4 was determined in rat polymorphonuclear cells from pleural exudate elicited by heat-activated rat serum (Palmer R. M. J., Salmon J. A.: Immunology 50, 65 (1983)). The cells were stimulated with the Ca ionophore A 23187 (Sigma) and incubated with various concentrations of the drugs tested. The sample containing only buffer was used for the determination of unaffected biosynthesis; the complete inhibition was measured in a sample with 100 μg of NDGA in 1 ml. LTB4 was determined in supernatant using a commercial RIA kit (Amersham).

[2] = system: male mice; assay: Inhibition of arachidonic acid-induced ear inflammation in mice; type: in vivo; details: Mus musculus, po, 1 h
Method: Inhibition of Arachidonic Acid-induced Ear Inflammation in Mice (Opas E. E. et al.: J. Invest. Dermatol. 84, 253 (1985) Ear inflammation was induced in male mice by 20 μl of arachidonic acid dissolved in acetone (concentration 100 mg/ml). The mice were sacrificed 1 h after application of arachidonic acid and the ears were cut off by standard means. The other, vehicle-treated ear of the same animal served as a control. The degree of ear hyperemia and the weight of ear lobes were evaluated. Test compounds were administered orally 1 h before the induction of inflammation.

[3] = system: peroxidation of lipids from the hepatic cells membranes; assay: Antioxidant effect in vitro; type: biochemical; details: at 100 μg
Source text: Antioxidant Effect in vitro
The end-product, malonic dialdehyde, was transformed to coloured complex with thiobarbituric acid and determined spectrophotometrically. The antioxidant effect was expressed in % of peroxidation inhibition in the presence of the compound tested in comparison to a control sample.

[4] = system: Wistar-Han rats; assay: Inhibition of carrageenan edema; type: in vivo; details: Rattus norvegicus, dose 100 mg/kg; read-out: CE: inhibition of carrageenan-induced edema, % of inh.
[5] = target: LTB4 receptor (Cavia porcellus, UniProt H0VYV8); assay: LTB4 receptor binding study; details: 3H-LTB4, guinea-pig spleen membranes; for IC50: read-out: Inh. of LTB4 rec. binding, IC50; for inhibition at 20 µM: read-out: Inh. of LTB4 rec. binding, %
Method: LTB4 Receptor Binding Study
A slightly modified method of Cheng and coworkers (Cheng J. B. et al.: J. Pharm. Expl. Ther. 236, 126 (1986)) was used. The membrane fraction was prepared from male guinea-pig spleen; 2 mg of membranes were incubated with 0.3 nM ^3 H-LTB4 at 25° C. for 30 min in 100 μl of the incubated mixture. The nonspecific binding was determined in the presence of 0.1 μM LTB4. The membranes were filtered though Whatman GF/C paper and washed triply with buffer. The radioactivity was measured by liquid scintillation spectrometry, and the specific binding of ^3 H-LTB4 to the receptor was determined.

[6] = system: bronchospasm induced by LTD4; assay: Inhibition of bronchospasm induced by LTD4; type: in vivo; details: for Inhibition of bronchospasm induced by LTD4, % of inhibition: dose 100 mg/kg
Method: (§1) Inhibition of Allergic Bronchospasm Induced by […] (Compound 48/80 or Ovalbumin, Respectively)
(§2) The modified method of Kreutner W. et al (Krelutner W. et al.: Agents Actions 28, 253 (1989)) was used. Bronchoconstrictioin was induced by intravenous injection of 1 μg/kg LTD4 (3 mg/kg of compound […] or 0.35 mg/kg of ovalbumin, respectively). In the case of oval-bumin, the animals were senzitized by intraperitoneal injection of ovalbumin (100 mg/kg) 14 days before induction. The compounds tested were applied 5 min before the administration of the inductor; the vehiculum used for the application of compound tested was administered to the control group of animals. The tracheal pressure was determined in the intervals of 2, 4 and 10 minutes after induction. The effect was expressed in percentage inhibition of bronchospasm relative to the untreated control.

[7] = target: T1, LTD4 receptor (Cavia porcellus, UniProt Q2NNR5); assay: LTD4 receptor binding study; details: 3H-LTD4, guinea-pig lung membranes; for IC50: read-out: Inh. of LTD4 rec. binding, IC50; for inhibition at 100 µM / inhibition at 20 µM: read-out: Inh. of LTD4 rec. binding, %
T1 construct: The membrane fraction was prepared from male guinea-pig lungs; from tissue; host or cells: male guinea-pig lung membranes
T1 sequence (Q2NNR5 1-340): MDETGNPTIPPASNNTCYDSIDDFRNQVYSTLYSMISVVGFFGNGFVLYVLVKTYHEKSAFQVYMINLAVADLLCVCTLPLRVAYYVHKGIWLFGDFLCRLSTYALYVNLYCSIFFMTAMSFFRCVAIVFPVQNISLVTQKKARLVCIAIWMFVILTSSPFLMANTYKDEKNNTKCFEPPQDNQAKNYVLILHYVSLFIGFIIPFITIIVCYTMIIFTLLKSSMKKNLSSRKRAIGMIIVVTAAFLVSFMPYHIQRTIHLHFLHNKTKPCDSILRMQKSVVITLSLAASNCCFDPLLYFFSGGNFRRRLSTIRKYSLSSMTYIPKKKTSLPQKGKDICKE
Method: LTD4 Receptor Binding Study
This study was performed according to the method of Burns and coworkers (Burns R. F. et al.: Life Sci. 33, 645 (1983)). The membrane fraction was prepared from male guinea-pig lungs, and 4 mg of this fraction were incubated with 0.4 nM ^3 H-LTD4 for 60 min at 25° C. in 100 μl of the incubated mixture. The nonspecific binding was determined in the presence of 0.1 μM LTD4. The filtration of the membranes, washing, and radioactivity measurement were as above.

[8] = system: rats; assay: Inhibition of carrageenan-induced pleuritis in rats; type: in vivo; details: Rattus norvegicus, po, 4 h, dose 100 mg/kg, oral, values with mark n: p > 0.05
Method: Inhibition of Carrageenan-induced Pleuritis in Rats
(Hidaka T. J.: Pharm. Pharmacol. 38, 242 (1986) 1 ml of 0.5% carrageenan solution in saline was administered intrapleurally to experimental animals under mild ether anesthesia. Test drugs were administered in single oral dose 1 h before carrageenan injection, 4 h following the carrageenan application the rats were killed and exudate was withdrawn from opened pleural cavity. The volume of exudate, its cellularity and total cell number were determined.

[9] = system: bronchospasm induced by ovalbumin; assay: Inhibition of bronchospasm induced by ovalbumin; type: in vivo; details: for Inhibition of bronchospasm induced by ovalbumin, % of inhibition: dose 100 mg/kg
Method: as §1, §2

[10] = values with mark n: p > 0.05, read-out: Ear edema, D: edema of ear lobe, % of inh.
[11] = values with mark n: p > 0.05, read-out: Ear edema, E: hyperemia of ear lobe, % of inh.
[12] = read-out: Experimental pleuritis, A: volume of exudate in pleural cavity, % of inh.
[13] = read-out: Experimental pleuritis, B: number of cells, % of inh.
[14] = read-out: Experimental pleuritis, C: cellularity in a volume unit, % of inh.

LTB4 receptor, sequence (H0VYV8 1-348): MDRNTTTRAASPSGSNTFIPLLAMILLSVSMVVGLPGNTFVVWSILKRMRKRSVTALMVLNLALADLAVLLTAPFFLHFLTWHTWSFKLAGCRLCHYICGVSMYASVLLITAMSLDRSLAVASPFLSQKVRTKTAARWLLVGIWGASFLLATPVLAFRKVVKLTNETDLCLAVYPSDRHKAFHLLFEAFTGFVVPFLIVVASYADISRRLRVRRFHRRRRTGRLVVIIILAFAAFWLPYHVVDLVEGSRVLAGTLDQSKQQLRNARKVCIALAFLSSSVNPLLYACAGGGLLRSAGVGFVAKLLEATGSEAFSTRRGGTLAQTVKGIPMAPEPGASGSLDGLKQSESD

| Structure (SMILES) | IC50 [1] [µg/mL] | Inh. of LTB4 biosynth., % [1] [%] | inhibition in vivo at 200 mg/kg [2, 10] [%] | inhibition in vivo at 200 mg/kg [2, 11] [%] | Antiox. effect, % of peroxidation inhibition [3] [%] | inhibition in vivo at 100 mg/kg [4] [%] | IC50 [5] [µM] | inhibition at 20 µM [5] [%] | inhibition in vivo at 100 mg/kg ([6]; 4 min) [%] | IC50 [7] [µM] | inhibition at 100 µM [7] [%] | inhibition in vivo at 100 mg/kg [8, 12] [%] | inhibition in vivo at 100 mg/kg [8, 13] [%] | inhibition in vivo at 100 mg/kg [8, 14] [%] | also measured |
| --- | --- | --- | --- | --- | --- | --- | --- | --- | --- | --- | --- | --- | --- | --- | --- |
| CCCc1c(OCCCOc2cccc(Sc3ccc(C(=O)O)cc3)c2)ccc(C(C)=O)c1O [Compound 5, 4-(3-(3-(4-Acetyl-3-hydroxy-2-propylphenoxy)propoxy)phenylsulfanyl)benzoic Acid] | 0.05 (≈ 0.104 µM) | 100 | 1 | 0 | 75 | 14 | 9.6 | 65 | 16 | 15.1 | 97 | 10 | 46 | 61 |  |
| CCCc1c(OCCCCOc2cccc(Sc3ccc(C(=O)O)cc3)c2)ccc(C(C)=O)c1O [Compound 8, 4-(3-(4-(4-Acetyl-3-hydroxy-2-propylphenoxy)butoxy)phenylsulfanyl)benzoic Acid] | 0.52 (≈ 1.05 µM) | 100 | 1 | 9 | 22 | 24 | 3.7 | 100 | 98 | 39.3 | 69 | 7 | 18 | 11 |  |
| CCCc1c(OCCCCOc2ccc(Sc3ccccc3CC(=O)O)cc2)ccc(C(C)=O)c1O [Compound 26, 2-(4-(4-(4-Acetyl-3-hydroxy-2-propylphenoxy)butoxy)phenylsulfanyl)phenylacetic Acid] |  | 97 | 17 | 0 | 0 | 34 | 18 | 29 |  | 34.7 | 63 | 20 | 8 | 23 |  |
| O=C(O)Cc1ccccc1Sc1ccc(OCCCN2CCN(Cc3ccc(Cl)cc3)CC2)cc1 [Compound 27] | 9.2 (≈ 18 µM) | 89 | 7 | 22 | 20 | 13 |  | 12 |  |  | 22 | 8 | 61 | 47 |  |
| O=C(O)Cc1ccccc1Sc1cccc(OCCCN2CCN(Cc3ccc(Cl)cc3)CC2)c1 [Compound 28, Dihydrogenmaleate of 2-(3-(3-(1-(4-Chlorobenzyl)piperazin-4-yl)-propoxy)phenylsulfanyl)phenylacetic Acid] | 0.6 (≈ 1.17 µM) | 100 | 16 | 19 | 3 | 18 | 7.9 | 69 |  |  |  | 10 | 21 | 14 | inhibition at 20 µM [7]: 10% |
| O=C(O)Cc1ccccc1Sc1ccc(OCc2ccc3ccccc3n2)cc1 [Compound 29, 2-(4-(Quinoline-2-ylmethoxy)phenylsulfanyl)phenylacetic Acid] | 28 (≈ 69.7 µM) | 44 | 2 | 22 | 0 | 52 | 24 | 50 |  | 0.6 | 95 | 3 | 27 | 25 |  |
| O=C(O)Cc1ccccc1Sc1cccc(OCc2ccc3cc(Cl)ccc3n2)c1 [Compound 31, 2-(3-(6-Chloroquinoline-2-ylmethoxy)phenylsulfanyl)phenylacetic Acid] | 0.46 (≈ 1.06 µM) | 100 | 16 | 11 | 4 | 13 | 58.9 | 40 |  | 1.15 |  | 24 | 75 | 39 | inhibition at 20 µM [7]: 83% |
| CON1CC/C(=C\c2cc(C(C)(C)C)c(O)c(C(C)(C)C)c2)C1=O [E 5110, reference compound] |  |  |  |  |  |  |  |  |  |  |  |  |  |  | Inhibition of bronchospasm induced by LTD4, % of inhibition ([6]; 2 min): 45%; Inhibition of bronchospasm induced by LTD4, % of inhibition ([6]; 4 min): 55%; Inhibition of bronchospasm induced by LTD4, % of inhibition ([6]; 10 min): 58%; Inhibition of bronchospasm induced by ovalbumin, % of inhibition ([9]; 2 min): 74%; Inhibition of bronchospasm induced by ovalbumin, % of inhibition ([9]; 4 min): 71%; Inhibition of bronchospasm induced by ovalbumin, % of inhibition ([9]; 10 min): 69% |
| CC(c1cc2ccccc2s1)N(O)C(N)=O (stereo not drawn) [Zileuton, reference compound] | 0.17 (≈ 0.719 µM) | 100 | 9 | 13 |  | 46 |  | 28 | 54 |  | 7 | 36 | 49 | 20 | inhibition in vivo at 100 mg/kg ([6]; 2 min): 10%; inhibition in vivo at 100 mg/kg ([6]; 10 min): 75%; inhibition in vivo at 100 mg/kg ([9]; 2 min): 23%; inhibition in vivo at 100 mg/kg ([9]; 4 min): 28%; inhibition in vivo at 100 mg/kg ([9]; 10 min): 50% |
